Test results from BindingDB's records for doi:10.1016/0922-4106(94)90065-5 (National Children's Medical Research Center, 1994).

Biological target: T1, Alpha-1B adrenergic receptor (Mesocricetus auratus, UniProt P18841)
T1 sequence (P18841 whole entry): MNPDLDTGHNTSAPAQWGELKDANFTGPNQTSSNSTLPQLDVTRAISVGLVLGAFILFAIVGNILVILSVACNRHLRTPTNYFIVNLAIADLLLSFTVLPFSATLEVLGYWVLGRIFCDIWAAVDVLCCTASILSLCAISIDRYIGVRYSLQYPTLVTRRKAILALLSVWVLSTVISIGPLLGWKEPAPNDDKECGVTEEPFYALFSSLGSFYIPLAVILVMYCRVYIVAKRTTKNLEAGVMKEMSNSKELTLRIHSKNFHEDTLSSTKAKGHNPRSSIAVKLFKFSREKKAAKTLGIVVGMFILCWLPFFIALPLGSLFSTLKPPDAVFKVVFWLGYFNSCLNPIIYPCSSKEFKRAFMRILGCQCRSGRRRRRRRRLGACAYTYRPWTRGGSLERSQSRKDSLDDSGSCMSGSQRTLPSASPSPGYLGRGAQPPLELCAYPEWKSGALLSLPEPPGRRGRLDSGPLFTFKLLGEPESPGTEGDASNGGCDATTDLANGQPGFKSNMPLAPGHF

Structure (SMILES)	Ki [nM]
NCC(O)c1ccc(O)c(O)c1 (stereo not drawn) [Noradrenaline,(+)]	920
COc1ccc(OC)c(C(O)C(C)N)c1 (stereo not drawn)	> 10000
Cc1ccc(N(CC2=NCCN2)c2cccc(O)c2)cc1 [SMR000059054]	18
COc1ccccc1N1CCN(CCCNc2c(C)c(=O)n(C)c(=O)n2C)CC1 [Urapidil-5-methyl]	180
COc1cccc(OC)c1OCCNCC1Oc2ccccc2OC1c1ccccc1 (stereo not drawn) [NSC_185453]	5.2
CC(C)NCC(O)c1ccc(O)c(O)c1 (stereo not drawn) [Isoproterenol,(+)]	> 10000
COC(=O)[C@@H]1[C@H]2C[C@H]3c4[nH]c5ccccc5c4CCN3C[C@@H]2CC[C@@H]1O [yohimbic acid methyl ester]	670
CNCC(O)c1ccc(O)c(O)c1 (stereo not drawn) [EPINEPHRINE]	9400
